Key:
5XFAD mice [1] = assay: Novel object recognition test in 5XFAD mice (Alzheimer's disease model); format: in vivo, mouse; settings: i.p. once a day for 20 days, diosgenin 10 μmol/kg, memantine hydrochloride 200 μmol/kg/day, 30 min training-test interval
Source text: Transgenic mice (5XFAD) as an animal model of AD were obtained from the Jackson Laboratory (Bar Harbor, Me., USA). The 5XFAD mice overexpress human APP695 cDNA having Swedish mutation (K670N and M671L), Florida mutation (I716V) and London mutation (V717I) and human PS1 cDNA (M146L and L286V) under the transcriptional control of the neuron-specific mouse Thy-1 promoter (Oakley, H. et al., J Neurosci, 26, 10129-10140, 2006). They were maintained by crossing hemizygous transgenic mice with B6/SJL F1 breeders.
To investigate the effect of diosgenin on 5XFAD, hemizygous 5XFAD mice (female, 6 to 8 months old) and non-transgenic littermate wild-type mice (female, 6 to 8 months old) were used. These mice were obtained by crossing hemizygous 5XFAD mice and B6/SJL F1 mice. All mice were housed with free access to food and water and were kept in a controlled environment (22±2° C., 50±5% humidity, 12-h light/dark cycle starting at 7:00 am).
Diosgenin was dissolved in dimethyl sulfoxide (DMSO) at 10 times the final concentration to give a stock solution. The stock solution was diluted in physiological saline to the final concentration immediately before treatment. The diosgenin solution was intraperitoneally administered to 5XFAD mice once a day (10 μmol/kg=4.14 mg/kg) for 20 days. On the last day of administration (Day 20), each mouse was housed in a separate open-field box made of polyvinyl chloride (33 cm×[…]; height: 26.5 cm) and habituated to the environment for 10 min. […]
For each mouse of Example 1, Comparative Examples 1 and 2, and Reference Example 1, the path during the 10-minute habituation was tracked using a digital camera system. The distance each mouse traveled during the 10 minutes was analyzed as locomotion activity with EthoVision 3.0 (Noldus, Wageningen, The Netherlands). […] In the present invention, the ratio (%) of the exploration time for the novel object to the total exploration time was calculated as an exploration preferential index. […]

5XFAD mice [2] = assay: Immunohistochemistry of brain slices of 5XFAD mice (amyloid plaques, PHF-tau, abnormal axons, presynapses); format: in vivo, mouse; settings: vs vehicle-treated 5XFAD
Method: One day after the novel object recognition test, the mice were anesthetized and transcardially perfused with cold physiological saline. The brains were carefully removed from the skull, immediately immersed in 10 to 30% sucrose-PBS and stored at -80° C. The brains were cut in 20-μm successive coronal slices every 100 μm in the parietal area (bregma 1.4-2 mm) sections using a cryostat (C[…], Leica, Heidelberg, Germany). The slices were fixed with 4% paraformaldehyde and stained with a polyclonal antibody against Aβ (1-40/42) (1:300) (Chemicon, Temecula, Calif., USA), a monoclonal antibody against pNF-H (1:500) (Covance, Emeryville, Calif., USA), a monoclonal antibody against synaptophysin (1:500) (Sigma-Aldrich), and a monoclonal antibody against PHF-tau (Thermo Scientific, Rockford, Ill., USA) at 4° C. for 20 hours. […] Three successive brain slices of the frontal cortex and five successive slices of the hippocampus were captured from a mouse for quantification. Extracellular amyloid plaques were determined by the size (greater than 50 μm in width), and the area of amyloid plaques was measured using the image analyzing software ImageJ. The area of the pNF-H-positive abnormal bulb-like axons was measured using ImageJ for every amyloid plaque in the fluorescent images (324 μm×430 μm). The areas of the synaptophysin-positive presynaptic boutons in every amyloid plaque were measured in fluorescent images (324 μm×430 μm) using Image J. The areas of PHF-tau in every amyloid plaque and outer amyloid plaques were measured in fluorescent images (324 μm×430 μm) using ImageJ.

[3] = diosgenin 10 μmol/kg, memantine hydrochloride 200 μmol/kg/day i.p. 20 days

## C[C@@H]1CC[C@@]2(OC1)O[C@H]1C[C@H]3[C@@H]4CC=C5C[C@@H](O)CC[C@]5(C)[C@H]4CC[C@]3(C)[C@H]1[C@@H]2C [diosgenin]
5XFAD mice [1]
  novel object preferential index (exploration preferential index), test session: higher than 50%
5XFAD mice [2]; diosgenin 10 μmol/kg i.p. 20 days
  area of abnormal presynapses (swollen presynapse area) per amyloid plaque in the cerebral cortex: significantly reduced
5XFAD mice [2]; [3]
  area of abnormal axons (swollen axon area) per amyloid plaque in the cerebral cortex: significantly reduced
  area of abnormal axons (swollen axon area) per amyloid plaque in the hippocampus: significantly reduced
  total area of PHF-tau in the cerebral cortex: significantly reduced
  total area of PHF-tau in the hippocampus: significantly reduced
  total area of amyloid plaques in the cerebral cortex: significantly reduced
  total area of amyloid plaques in the hippocampus: significantly reduced
